In patent US11352322B2, “Cyclopropyl-amide compounds as dual LSD1/HDAC inhibitors” (Jubilant Epicore LLC, priority 2016, dated 2022):
Counter-ions that a name gives are not always drawn. Like-named read-outs stand apart in the source and are kept apart here.

Columns and labels:
[1] = In vivo PK studies in mice; design: species or system Male Balb/C mice; conditions: for C0 / Vd / Cmax / clearance / half-life / bioavailability: male, Balb/C, mouse, plasma; for clearance: read-out: Cl IV
Method: In Vivo PK Studies in Mice
All the animal experiments were approved by Institutional Animal Ethical Committee (IAEC/JDC/2015/72). Male Balb/C mice (n=24) were procured from Vivo Biotech, Hyderabad, India. The animals were housed in Jubilant Biosys animal house facility in a temperature (22±2° C.) and humidity (30-70%) controlled room (15 air changes/hour) with a 12:12 h light:dark cycles, had free access to rodent feed (Altromin Spezialfutter GmbH & Co. KG., Im Seelenkamp 20, D-32791, Lage, Germany) and water for one week before using for experimental purpose. Following ˜4 h fast (during the fasting period animals had free access to water) animals were divided into two groups (n=12/group). […] Post-dosing serial blood samples (100 μL, sparse sampling was done and at each time point three mice were used for blood sampling) were collected using Micropipettes (Microcaps®; catalogue number: 1-000-0500) through tail vein into polypropylene tubes containing K2.EDTA solution as an anti-coagulant at 0.25, 0.5, 1, 2, 4, 8, 10 and 24 (for oral study) and 0.12, 0.25, 0.5, 1, 2, 4, 8 and 24 (for intravenous study). Plasma was harvested by centrifuging the blood using Biofuge (Hereaus, Germany) at 1760 g for 5 min and stored frozen at −80±10° C. until analysis. Animals were allowed to access feed 2 h post-dosing.
Plasma concentration-time data of the compound was analyzed by non-compartmental method using Phoenix WinNonlin Version 6.3 (Pharsight Corporation, Mountain View, Calif.).

[2] = Metabolic stability in liver microsomes, HLM; conditions: 1 μM, NADPH
Method: (§1) The microsomal suspension was prepared by adding liver microsomes to 100 mM potassium phosphate buffer (pH7.4) to give a final protein concentration of 0.5 mg/mL. The stock solution of NCE (10 mM in DMSO) was added to the microsomes to provide a final concentration of 1 μM. […] Samples were vortexed and centrifuged at 5,000 rpm for 10 min to remove proteins. Supernatant were analyzed on LC-MS/MS.

[3] = Metabolic stability in liver microsomes, MLM; conditions: 1 μM, NADPH
Method: as §1

LSD1 = LSD1 (Homo sapiens (Human), UniProt O60341); assay: TR-FRET Assay for LSD1; conditions: read-out: LSD1 IC50
Method: TR-FRET Assay for LSD1 (Perkin Elmer)
Tranylcypromine (TCP), LSD1 inhibitor was procured from Selleckchem. […] Stop Solution containing 300 μM tranylcypromine in 1× LANCE Detection Buffer was added to the wells and incubated for 5 min at RT. Then, Detection mix containing 2 nM Eu-Ab and 50 nM ULight-Streptavidin in 1× LANCE Detection Buffer was prepared and added to the reaction mix. This mixture was incubated for 1 hour at room temperature.

[4] = target: HDAC6 human recombinant enzyme (Homo sapiens (Human), UniProt Q9UBN7); assay: Histone Deacetylase Assay (BPS Biosciences), HDAC6; assay type: biochemical
HDAC6 human recombinant enzyme, sequence (Q9UBN7 whole entry): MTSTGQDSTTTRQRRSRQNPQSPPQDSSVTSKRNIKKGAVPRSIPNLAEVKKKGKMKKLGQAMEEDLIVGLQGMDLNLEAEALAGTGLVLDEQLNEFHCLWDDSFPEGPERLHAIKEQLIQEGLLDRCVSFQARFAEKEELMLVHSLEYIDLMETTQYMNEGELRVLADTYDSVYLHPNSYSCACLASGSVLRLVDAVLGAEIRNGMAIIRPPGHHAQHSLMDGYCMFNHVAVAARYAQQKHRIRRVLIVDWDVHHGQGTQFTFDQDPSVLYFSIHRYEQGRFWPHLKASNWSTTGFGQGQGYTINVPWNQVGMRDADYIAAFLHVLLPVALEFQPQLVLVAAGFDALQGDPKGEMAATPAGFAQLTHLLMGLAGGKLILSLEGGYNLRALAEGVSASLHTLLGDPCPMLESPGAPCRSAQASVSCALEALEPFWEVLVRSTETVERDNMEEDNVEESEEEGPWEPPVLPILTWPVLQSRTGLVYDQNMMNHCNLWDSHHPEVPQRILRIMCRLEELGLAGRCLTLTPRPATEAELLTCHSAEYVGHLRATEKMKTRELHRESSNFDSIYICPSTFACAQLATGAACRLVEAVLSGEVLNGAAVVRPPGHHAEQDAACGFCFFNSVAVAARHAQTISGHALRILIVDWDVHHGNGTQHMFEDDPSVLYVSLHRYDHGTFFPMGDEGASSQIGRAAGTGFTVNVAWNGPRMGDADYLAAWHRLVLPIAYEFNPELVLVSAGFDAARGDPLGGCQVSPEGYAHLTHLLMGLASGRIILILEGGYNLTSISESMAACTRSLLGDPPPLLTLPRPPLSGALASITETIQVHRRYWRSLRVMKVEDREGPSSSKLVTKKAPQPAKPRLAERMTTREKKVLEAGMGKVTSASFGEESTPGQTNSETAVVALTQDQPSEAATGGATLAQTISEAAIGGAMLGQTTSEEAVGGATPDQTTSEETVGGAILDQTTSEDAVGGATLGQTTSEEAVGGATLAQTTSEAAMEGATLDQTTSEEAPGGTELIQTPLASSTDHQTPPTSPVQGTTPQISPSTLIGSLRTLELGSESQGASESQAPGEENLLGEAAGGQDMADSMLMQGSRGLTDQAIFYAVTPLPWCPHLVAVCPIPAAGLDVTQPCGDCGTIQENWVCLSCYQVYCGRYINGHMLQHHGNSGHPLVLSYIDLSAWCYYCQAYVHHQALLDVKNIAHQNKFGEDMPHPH
Text: Histone Deacetylase Assay (BPS Biosciences)
Histone deacetylase assay was done as per manufacturer's instructions.

MM1S = assay: Anticancer activity: Alamar Blue assay, MM1S; assay type: cell-based; conditions: Homo sapiens, MM1.S, read-out: MM1S EC50
Method: Cells were seeded at 5000 cells/per well in 96-well tissue culture plate and incubated at 37° C./5% CO2. After 16-24 hours, fresh media was added to the wells. Compounds were then (1% DMSO conc.) added to the cells at 10 concentrations ranging from 10-0.0005 uM prepared in 3-fold serial dilutions. Cells were incubated for 68-72 h at 37° C./5% CO2. Alamar Blue™ reagent was added and incubated for 1-3 hours at 37° C./5% CO2. Plates were read on fluorescence reader at 540 nm excitation, 590 nm emission wave lengths.

[5] = IV 2 mg/kg, read-out: t1/2 IV (converted)
[6] = PO 10 mg/kg, read-out: t1/2 PO (converted)
[7] = PO 50 mg/kg, read-out: t1/2 PO (converted)

SMILES | Metabolic stability HLM % remaining in 30 min [2] | Metabolic stability MLM % remaining in 30 min [3] | IC50 (LSD1) [nM] | IC50 [4] [nM] | EC50 (MM1S; MM1S cells) [nM] | EC50 (MM1S) [nM] | other results
O=C(NO)c1ccc(CCCN2CCC(CNC3CC3c3ccc(-c4ccc(F)cc4)cc3)CC2)cc1 (centres unmarked) [Example 57, 4-(3-(4-(((2-(4′-fluoro-[1,1′-biphenyl]-4-yl)cyclopropyl)amino)methyl)piperidin-1-yl)propyl)-N-hydroxybenzamide TFA Salt] | 92% | 75% | 21 | 59 |  |  | AUC IV ([1]; IV 2 mg/kg): 169 ng/mL/h; AUC PO ([1]; PO 10 mg/kg): 677 ng/mL/h; C0 ([1]; IV 2 mg/kg): 260 ng/mL; Vd ([1]; IV 2 mg/kg): 28 L/kg; Cmax ([1]; IV 2 mg/kg, read-out: CMax IV): 254 ng/mL; clearance ([1]; IV 2 mg/kg): 190 mL/min/kg; half-life [1, 5]: 1.71 h; Cmax ([1]; PO 10 mg/kg, read-out: CMax PO): 217 ng/mL; half-life [1, 6]: 1.83 h; bioavailability ([1]; dose IV/PO 2/10 mg/kg): 80%
O=C(NO)c1ccc(CCCN2CCC(CNC3CC3c3ccc(-c4cncnc4)cc3)CC2)cc1 (centres unmarked) [Example 61, N-hydroxy-4-(3-(4-(((2-(4-(pyrimidin-5-yl)phenyl)cyclopropyl)amino)methyl)piperidin-1-yl)propyl)benzamide TFA Salt] | 77% | 66% | 12 | 121 | 49 |  | AUC IV ([1]; IV 10 mg/kg): 1287 ng/mL/h; AUC PO ([1]; PO 50 mg/kg): 1920 ng/mL/h; C0 ([1]; IV 10 mg/kg): 5340 ng/mL; Vd ([1]; IV 10 mg/kg): 30 L/kg; Cmax ([1]; IV 10 mg/kg, read-out: CMax IV): 2760 ng/mL; clearance ([1]; IV 10 mg/kg): 125 mL/min/kg; half-life ([1]; IV 10 mg/kg, read-out: t1/2 IV (converted)): 2.8 h; Cmax ([1]; PO 50 mg/kg, read-out: CMax PO): 771 ng/mL; half-life [1, 7]: 1.48 h; bioavailability ([1]; dose IV/PO 10/50 mg/kg): 30%
O=C(NO)c1ccc(/C=C/C(=O)N2CCC(CN[C@@H]3C[C@H]3c3ccc(F)cc3)CC2)cc1 [Example 115A, 4-((E)-3-(4-((((1R,2S)-2-(4-fluorophenyl)cyclopropyl)amino)methyl)piperidin-1-yl)-3-oxoprop-1-en-1-yl)-N-hydroxybenzamide TFA Salt] | 59% | 90% | 225 | 50 | 77 |  | AUC IV ([1]; IV 2 mg/kg): 301 ng/mL/h; AUC PO ([1]; PO 10 mg/kg): 638 ng/mL/h; C0 ([1]; IV 2 mg/kg): 452 ng/mL; Vd ([1]; IV 2 mg/kg): 8 L/kg; Cmax ([1]; IV 2 mg/kg, read-out: CMax IV): 452 ng/mL; clearance ([1]; IV 2 mg/kg): 108 mL/min/kg; half-life [1, 5]: 0.87 h; Cmax ([1]; PO 10 mg/kg, read-out: CMax PO): 354 ng/mL; half-life [1, 6]: 2.78 h; bioavailability ([1]; dose IV/PO 2/10 mg/kg): 43%
Nc1ccccc1NC(=O)c1ccc(CN2CCC(CN[C@@H]3C[C@H]3c3ccccc3)CC2)cc1 [Example 140, N-(2-aminophenyl)-4-((4-((((1R,2S)-2-phenylcyclopropyl)amino)methyl)piperidin-1-yl)methyl)benzamide TFA Salt] | 85% | 83% | 2 | > 10000 |  | 2 | 
Cn1cc(-c2ccc(C3CC3NCC3CCN(Cc4ccc(C(=O)Nc5ccccc5N)cc4)CC3)cc2)ccc1=O (centres unmarked) [Example 141, N-(2-aminophenyl)-4-((4-(((2-(4-(1-methyl-6-oxo-1,6-dihydropyridin-3-yl)phenyl)cyclopropyl)amino)methyl)piperidin-1-yl)methyl)benzamide TFA Salt] | 88% | 75% | 30 | > 10000 |  | 194 | 
Cn1cc(-c2ccc(C3CC3NCC3CCN(Cc4ccc(C(=O)Nc5ccccc5N)cc4)CC3)cc2)cn1 (centres unmarked) [Example 142, N-(2-aminophenyl)-4-((4-(((2-(4-(1-methyl-1H-pyrazol-4-yl)phenyl)cyclopropyl)amino)methyl)piperidin-1-yl)methyl)benzamide TFA Salt] | 72% | 52% | 12 | > 10000 | 120 |  | AUC IV ([1]; IV 2 mg/kg): 357 ng/mL/h; AUC PO ([1]; PO 50 mg/kg): 3217 ng/mL/h; C0 ([1]; IV 2 mg/kg): 198 ng/mL; Vd ([1]; IV 2 mg/kg): 25 L/kg; Cmax ([1]; IV 2 mg/kg, read-out: CMax IV): 150 ng/mL; clearance ([1]; IV 2 mg/kg): 88 mL/min/kg; half-life [1, 5]: 12.6 h; Cmax ([1]; PO 50 mg/kg, read-out: CMax PO): 555 ng/mL; half-life [1, 7]: 6.7 h; bioavailability ([1]; dose IV/PO 2/50 mg/kg): 36%
Cc1noc(C)c1-c1ccc(C2CC2NCC2CCN(Cc3ccc(C(=O)Nc4ccccc4N)cc3)CC2)cc1 (centres unmarked) [Example 143, N-(2-aminophenyl)-4-((4-(((2-(4-(3,5-dimethylisoxazol-4-yl)phenyl)cyclopropyl)amino)methyl)piperidin-1-yl)methyl)benzamide TFA Salt] | 37% | 50% | 37 | > 10000 |  | 102 | 
Nc1ccccc1NC(=O)c1ccc(CN2CCC(CNC3CC3c3ccc(-c4cncnc4)cc3)CC2)cc1 (centres unmarked) [Example 144, N-(2-aminophenyl)-4-((4-(((2-(4-(pyrimidin-5-yl)phenyl)cyclopropyl)amino)methyl)piperidin-1-yl)methyl)benzamide TFA Salt] | 68% | 52% | 41 | > 10000 |  | 152 | 
Nc1ccccc1NC(=O)c1ccc(CC(=O)N2CCC(CNC3CC3c3ccc(F)cc3)CC2)cc1 (centres unmarked) [Example 147, N-(2-aminophenyl)-4-(2-(4-(((2-(4-fluorophenyl)cyclopropyl)amino)methyl)piperidin-1-yl)-2-oxoethyl)benzamide TFA Salt] | 48% | < 5% | 32 | > 10000 |  | 29 | 
Nc1ccccc1NC(=O)c1ccc(OCCNC2CC2c2ccc(F)cc2)cc1 (centres unmarked) [Example 148, N-(2-aminophenyl)-4-(2-((2-(4-fluorophenyl)cyclopropyl)amino)ethoxy) benzamide TFA Salt] | 46% | 34% | 24 | > 10000 | 40 |  | 
Nc1ccccc1NC(=O)c1cnc(NCCN2CCC(CNC3CC3c3ccc(F)cc3)CC2)nc1 (centres unmarked) [Example 150] | >95/>95% | >95/>95% | 16 | > 10000 | 411 |  | 
Nc1ccccc1NC(=O)c1ccc(/C=C/C(=O)N2CCC(CNC3CC3c3ccc(F)cc3)CC2)cc1 (centres unmarked) [Example 156] | 58% | 49% | 186 | > 10000 | 97 |  | 
Nc1ccccc1NC(=O)c1ccc(/C=C/C(=O)N2CC(CNC3CC3c3ccc(F)cc3)C2)cc1 (centres unmarked) [Example 157, (E)-N-(2-aminophenyl)-4-(3-(3-(((2-(4-fluorophenyl)cyclopropyl)amino)methyl)azetidin-1-yl)-3-oxoprop-1-en-1-yl)benzamide TFA Salt] | 53% | 63% | 58 | > 10000 |  | 167 | 
